Data published in patent US12371454B2, “Cyclic peptide compound having Kras inhibitory action” (priority 2019, dated 2025).
Starred links: 1 amine or outer side, 2 acyl side, 3 side chain; linkers in the order of their positions; H or OH if unused. Positions of bridges follow the written chain, without caps; N, C: chain ends. Non-standard residues stand in square brackets, D forms with d. Residues, ends and D or L forms follow the SMILES beside them. *: point of attachment. hPhe(3-F,4-CF3) = N[C@@H](CCc1ccc(C(F)(F)F)c(F)c1)C(=O)O; oXylylene = c1ccc(C[*:2])c(C[*:1])c1; NMeCha = CN[C@@H](CC1CCCCC1)C(=O)O; cisHyp = O=C(O)[C@@H]1C[C@H](O)CN1; Hyp = O=C(O)[C@@H]1C[C@@H](O)CN1; NMeD = CN[C@@H](CC(=O)O)C(=O)O; Benzyl(4-Cl) = Clc1ccc(C*)cc1; NMeL = CN[C@@H](CC(C)C)C(=O)O; Piperidide = C1CCN(*)CC1; X45 = FC(F)Oc1ccc(C*)cc1; Ac5c = NC1(C(=O)O)CCCC1; X30 = COc1cccc(C*)c1; Meb = Cc1ccc(C*)cc1; X27 = Clc1ccccc1C*; Sar = CNCC(=O)O

These molecules were tested on Human pancreatic cancer cell line AsPC-1 (assay: Measurement of AsPC-1 cell growth inhibition (AsPC-1 CGI)). Conditions: 96 h.
Format: cell-based
Summary of the method: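 AsPC-1 cells in 15% FBS RPMI-1640 were exposed to test compound for 96 hours at 37° C, with CellTiter-Glo as endpoint.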

Structure (SMILES) | IC50 [nM]
CC[C@H](C)[C@@H]1NC(=O)[C@H](CC(C)C)N(C)C(=O)C[C@@H](C(=O)N2CCCCC2)N(C)C(=O)[C@H](CC(C)C)N(C)C(=O)C2(CCCC2)NC(=O)[C@@H]2C[C@H](OCc3ccc(Cl)cc3)CN2C(=O)[C@H](CCc2ccc(C(F)(F)F)c(F)c2)NC(=O)CN(C)C(=O)[C@H](CC2CCCCC2)N(C)C(=O)CN(C)C(=O)CN(C)C1=O [Compound 2129] ([NMeL]I[Sar][Sar][NMeCha][Sar][hPhe(3-F,4-CF3)][cisHyp](Benzyl(4-Cl))[Ac5c][NMeL][NMeD]-Piperidide; lactam N-11) | > 500
CC[C@H](C)[C@@H]1NC(=O)[C@H](CC(C)C)N(C)C(=O)C[C@@H](C(=O)N2CCCCC2)N(C)C(=O)[C@H](CC(C)C)N(C)C(=O)C2(CCCC2)NC(=O)[C@@H]2C[C@@H](OCc3ccc(C)cc3)CN2C(=O)[C@H](CCc2ccc(C(F)(F)F)c(F)c2)NC(=O)CN(C)C(=O)[C@H](CC2CCCCC2)N(C)C(=O)CN(C)C(=O)CN(C)C1=O [Compound 2130] ([NMeL]I[Sar][Sar][NMeCha][Sar][hPhe(3-F,4-CF3)][Hyp](Meb)[Ac5c][NMeL][NMeD]-Piperidide; lactam N-11) | > 500
CC[C@H](C)[C@@H]1NC(=O)[C@H](CC(C)C)N(C)C(=O)C[C@@H](C(=O)N2CCCCC2)N(C)C(=O)[C@H](CC(C)C)N(C)C(=O)C2(CCCC2)NC(=O)[C@@H]2C[C@@H](OCc3cccc(OC)c3)CN2C(=O)[C@H](CCc2ccc(C(F)(F)F)c(F)c2)NC(=O)CN(C)C(=O)[C@H](CC2CCCCC2)N(C)C(=O)CN(C)C(=O)CN(C)C1=O [Compound 2131] ([NMeL]I[Sar][Sar][NMeCha][Sar][hPhe(3-F,4-CF3)][Hyp](X30)[Ac5c][NMeL][NMeD]-Piperidide; lactam N-11) | 100 to 500
CC[C@H](C)[C@@H]1NC(=O)[C@H](CC(C)C)N(C)C(=O)C[C@@H](C(=O)N2CCCCC2)N(C)C(=O)[C@H](CC(C)C)N(C)C(=O)C2(CCCC2)NC(=O)[C@@H]2C[C@H](OCc3ccccc3Cl)CN2C(=O)[C@H](CCc2ccc(C(F)(F)F)c(F)c2)NC(=O)CN(C)C(=O)[C@H](CC2CCCCC2)N(C)C(=O)CN(C)C(=O)CN(C)C1=O [Compound 2132] ([NMeL]I[Sar][Sar][NMeCha][Sar][hPhe(3-F,4-CF3)][cisHyp](X27)[Ac5c][NMeL][NMeD]-Piperidide; lactam N-11) | > 500
CC[C@H](C)[C@@H]1NC(=O)[C@H](CC(C)C)N(C)C(=O)C[C@@H](C(=O)N2CCCCC2)N(C)C(=O)[C@H](CC(C)C)N(C)C(=O)C2(CCCC2)NC(=O)[C@@H]2C[C@H](OCc3ccc(OC(F)F)cc3)CN2C(=O)[C@H](CCc2ccc(C(F)(F)F)c(F)c2)NC(=O)CN(C)C(=O)[C@H](CC2CCCCC2)N(C)C(=O)CN(C)C(=O)CN(C)C1=O [Compound 2135] ([NMeL]I[Sar][Sar][NMeCha][Sar][hPhe(3-F,4-CF3)][cisHyp](X45)[Ac5c][NMeL][NMeD]-Piperidide; lactam N-11) | > 500
CC[C@H](C)[C@@H]1NC(=O)[C@H](CC(C)C)N(C)C(=O)C[C@@H](C(=O)N2CCCCC2)N(C)C(=O)[C@H](CC(C)C)N(C)C(=O)C2(CCCC2)NC(=O)[C@@H]2C[C@H](OCc3cccc(OC)c3)CN2C(=O)[C@H](CCc2ccc(C(F)(F)F)c(F)c2)NC(=O)CN(C)C(=O)[C@H](CC2CCCCC2)N(C)C(=O)CN(C)C(=O)CN(C)C1=O [Compound 2136] ([NMeL]I[Sar][Sar][NMeCha][Sar][hPhe(3-F,4-CF3)][cisHyp](X30)[Ac5c][NMeL][NMeD]-Piperidide; lactam N-11) | > 500
CC[C@H](C)[C@@H]1NC(=O)[C@H](CC(C)C)N(C)C(=O)C[C@@H](C(=O)N2CCCCC2)N(C)C(=O)[C@H](CC(C)C)N(C)C(=O)C2(CCCC2)NC(=O)[C@@H]2C[C@H](OCc3ccccc3C)CN2C(=O)[C@H](CCc2ccc(C(F)(F)F)c(F)c2)NC(=O)CN(C)C(=O)[C@H](CC2CCCCC2)N(C)C(=O)CN(C)C(=O)CN(C)C1=O [Compound 2137] ([NMeL]I[Sar][Sar][NMeCha][Sar][hPhe(3-F,4-CF3)][cisHyp](oXylylene)[Ac5c][NMeL][NMeD]-Piperidide; lactam N-11) | > 500
